Laboratory results taken from publication PMC5536041, “Inhibitory Effects of Trapping Agents of Sulfur Drug Reactive Intermediates against Major Human Cytochrome P450 Isoforms” (International Journal of Molecular Sciences, 2017).
Like-named read-outs stand apart in the source and are kept apart here.

What was measured:
[1] = tested on: major human CYP isoforms (CYP1A2, 2C9, 2C19, 2D6 and 3A); assay: CYP inhibition in human liver microsomes, summary over the isoform panel; settings: HLM + NADPH
CYP3A [2] = molecular target: T1, CYP3A (Homo sapiens, UniProt P08684); assay: in vitro; settings: microsomes
CYP3A [3] = molecular target: T1, CYP3A; assay: in vitro; settings: microsomes; remark: listed apart in the source
CYP2D6 [4] = molecular target: T2, CYP2D6 (Homo sapiens, UniProt P10635); assay: CYP inhibition in human liver microsomes, CYP2D6 (dextromethorphan probe)
CYP2C19 [5] = molecular target: T3, CYP2C19 (Homo sapiens, UniProt P33261); assay: CYP inhibition in human liver microsomes, CYP2C19 ((S)-mephenytoin probe); settings: for Activation of CYP2C19 observed at concentrations up to: HLM + NADPH, (S)-mephenytoin probe
CYP1A2 [6] = molecular target: T4, CYP1A2 (Homo sapiens, UniProt P05177); assay: in vitro; settings: microsomes
T4 sequence (P05177 1-516): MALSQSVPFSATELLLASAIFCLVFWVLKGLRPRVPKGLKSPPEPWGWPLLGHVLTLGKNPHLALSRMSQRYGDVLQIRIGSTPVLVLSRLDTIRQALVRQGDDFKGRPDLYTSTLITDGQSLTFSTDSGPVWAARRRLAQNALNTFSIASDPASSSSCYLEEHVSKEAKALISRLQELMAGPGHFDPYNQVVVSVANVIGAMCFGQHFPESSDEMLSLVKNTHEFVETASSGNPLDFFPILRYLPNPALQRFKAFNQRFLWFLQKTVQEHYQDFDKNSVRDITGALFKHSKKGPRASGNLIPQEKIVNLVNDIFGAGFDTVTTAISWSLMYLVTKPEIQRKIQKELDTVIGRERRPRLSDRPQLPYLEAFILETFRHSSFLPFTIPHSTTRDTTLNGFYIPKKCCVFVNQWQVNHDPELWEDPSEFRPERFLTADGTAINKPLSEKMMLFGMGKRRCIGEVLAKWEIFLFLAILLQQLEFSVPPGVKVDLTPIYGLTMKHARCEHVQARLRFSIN

CYP2C9 [7] = molecular target: T5, CYP2C9 (Homo sapiens, UniProt P11712); assay: CYP inhibition in human liver microsomes, CYP2C9 ((S)-warfarin probe); settings: for Activation of CYP2C9 observed at concentrations up to: HLM + NADPH, (S)-warfarin probe
[8] = tested on: ticlopidine metabolism in human liver microsomes (TSOD and TSO-NEM formation); assay: Trapping of reactive metabolites of ticlopidine with NEM in human liver microsomes; format: in vitro ADME; settings: ticlopidine 1 μM
Method: Ticlopidine (1 μM) was incubated at 37 °C for 15 min in the presence or absence of various concentrations of NEM with HLM (0.5 mg/mL), NADPH (1 mM) and KPi (0.1 M), in a final incubation volume of 100 µL. Assay conditions were optimized with regard to protein concentration and incubation time, based on linear formation of TSOD. The incubations were performed over a concentration range of NEM (0.0007–40 mM) including a vehicle control, for a total of twelve incubations. A 50 µL sample was withdrawn at 15 min and the reactions were quenched in 100 µL of 0.1% formic acid in ACN containing an IS. Samples were centrifuged at 2000× g for 10 min and supernatants (75 µL) were removed and diluted with 0.1% formic acid in water (150 µL). The prepared samples were analyzed by LC-MS/MS for ticlopidine, N-ethylmaleimide-trapped S-oxide (TSO-NEM) and ticlopidine S-oxide dimer (TSOD). Peak areas were normalized to an IS, and the percentage of metabolite formed at the end of the incubation was calculated and compared to the incubation containing the highest peak area to IS ratio of metabolite (set at 100%).
The prepared samples were analyzed by LC-MS/MS using a Cohesive LX-2 Transcend Multiplexing system with Agilent 1100 series high pressure liquid chromatography (HPLC) pumps from Agilent Technologies (Santa Clara, CA, USA) and an HTS PAL autosampler from CTC Analytics (Carrboro, NC, USA) connected to a Sciex API5500-QTrap mass spectrometer with a Turbo V™ ion source (Foster City, CA, USA). A Phenomenex Kinetex Phenyl-Hexyl HPLC column (30 × 2.1 mm, 2.6 µ) was used with 0.1% formic acid in water (mobile phase A) or 0.1% formic acid in ACN (mobile phase B) flowing at 0.55 mL/min in the following gradient: mobile phase B was held at 1% for 0.4 min, increased to 5% over 0.2 min, to 55% over 6.7 min and to 95% over 0.5 min, where it was held for 0.75 min prior to re-equilibration at 1%. LC-MS/MS multiple reaction (MRM) transitions for the CYP inhibition assay were reported previously. […]

CYP3A [9] = molecular target: T1, CYP3A; settings: microsomes
CYP3A [10] = molecular target: T1, CYP3A; settings: microsomes; remark: listed apart in the source
CYP1A2 [11] = molecular target: T4, CYP1A2; settings: microsomes
CYP2D6 [12] = molecular target: T2, CYP2D6; settings: microsomes
CYP2C19 [13] = molecular target: T3, CYP2C19; settings: microsomes
[14] = tested on: major human CYP isoforms (CYP1A2, 2C9, 2C19, 2D6 and 3A)
CYP2C9 [15] = molecular target: T5, CYP2C9; settings: microsomes
CYP1A2 [16] = molecular target: T4, CYP1A2; assay: CYP inhibition in human liver microsomes, CYP1A2 (tacrine probe)
[17] = tested on: major human CYP isoforms (CYP1A2, 2C9, 2C19, 2D6 and 3A); assay: in vitro; settings: microsomes

T1 sequence (P08684 2-503 limits assumed): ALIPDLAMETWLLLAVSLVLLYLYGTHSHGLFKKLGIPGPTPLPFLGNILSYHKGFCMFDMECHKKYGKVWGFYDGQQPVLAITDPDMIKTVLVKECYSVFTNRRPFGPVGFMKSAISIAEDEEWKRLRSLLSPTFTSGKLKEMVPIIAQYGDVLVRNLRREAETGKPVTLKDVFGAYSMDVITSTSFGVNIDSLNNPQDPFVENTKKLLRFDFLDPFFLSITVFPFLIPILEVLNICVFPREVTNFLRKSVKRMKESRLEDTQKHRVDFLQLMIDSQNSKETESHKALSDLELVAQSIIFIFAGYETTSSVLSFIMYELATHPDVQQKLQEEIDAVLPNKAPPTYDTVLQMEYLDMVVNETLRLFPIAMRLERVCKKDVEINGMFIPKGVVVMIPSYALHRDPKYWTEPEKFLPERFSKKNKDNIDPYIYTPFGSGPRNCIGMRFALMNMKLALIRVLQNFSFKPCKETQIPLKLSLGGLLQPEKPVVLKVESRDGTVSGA
T5 sequence (P11712 whole entry): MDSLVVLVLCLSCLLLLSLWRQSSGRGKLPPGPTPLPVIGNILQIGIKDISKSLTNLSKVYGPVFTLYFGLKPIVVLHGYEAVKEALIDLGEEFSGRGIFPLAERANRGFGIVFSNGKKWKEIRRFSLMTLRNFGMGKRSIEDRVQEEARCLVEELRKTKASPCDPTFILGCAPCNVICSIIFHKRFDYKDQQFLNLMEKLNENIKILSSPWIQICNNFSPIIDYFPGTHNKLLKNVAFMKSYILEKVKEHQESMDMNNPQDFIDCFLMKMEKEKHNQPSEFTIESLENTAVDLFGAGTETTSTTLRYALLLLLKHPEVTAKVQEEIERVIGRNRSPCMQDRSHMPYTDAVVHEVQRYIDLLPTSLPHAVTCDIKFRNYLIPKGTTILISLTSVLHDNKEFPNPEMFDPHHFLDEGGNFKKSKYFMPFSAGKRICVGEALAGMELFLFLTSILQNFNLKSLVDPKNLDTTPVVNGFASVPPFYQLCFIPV
T2 sequence (P10635 whole entry): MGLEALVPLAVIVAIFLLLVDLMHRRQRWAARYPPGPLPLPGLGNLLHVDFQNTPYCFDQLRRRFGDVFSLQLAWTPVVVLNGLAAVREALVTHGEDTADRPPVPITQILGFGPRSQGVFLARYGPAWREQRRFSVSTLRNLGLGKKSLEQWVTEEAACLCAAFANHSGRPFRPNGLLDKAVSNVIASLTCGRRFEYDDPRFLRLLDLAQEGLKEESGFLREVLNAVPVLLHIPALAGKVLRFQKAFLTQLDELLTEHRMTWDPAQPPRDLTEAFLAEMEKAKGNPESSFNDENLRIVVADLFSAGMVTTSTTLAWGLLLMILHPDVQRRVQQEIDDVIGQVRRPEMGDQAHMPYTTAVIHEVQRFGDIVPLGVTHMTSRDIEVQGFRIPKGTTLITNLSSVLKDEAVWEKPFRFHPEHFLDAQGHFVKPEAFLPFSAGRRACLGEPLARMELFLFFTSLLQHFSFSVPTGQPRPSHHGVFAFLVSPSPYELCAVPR
T3 sequence (P33261 whole entry): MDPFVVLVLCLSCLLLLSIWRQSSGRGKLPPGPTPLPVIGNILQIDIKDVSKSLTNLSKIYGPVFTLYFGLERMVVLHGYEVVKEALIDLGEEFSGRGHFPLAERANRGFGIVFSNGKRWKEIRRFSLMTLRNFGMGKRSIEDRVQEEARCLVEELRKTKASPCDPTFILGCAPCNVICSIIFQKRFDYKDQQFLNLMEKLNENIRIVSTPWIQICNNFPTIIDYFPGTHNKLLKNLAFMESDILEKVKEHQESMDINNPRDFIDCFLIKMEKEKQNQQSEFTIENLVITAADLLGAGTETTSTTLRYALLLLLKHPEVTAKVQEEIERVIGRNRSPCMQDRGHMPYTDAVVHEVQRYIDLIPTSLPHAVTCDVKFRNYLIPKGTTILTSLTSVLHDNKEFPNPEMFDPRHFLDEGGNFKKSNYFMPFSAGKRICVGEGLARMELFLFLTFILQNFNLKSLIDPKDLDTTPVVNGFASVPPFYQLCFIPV

With `CC(=O)N[C@@H](CCCCN)C(=O)O` [N-Acetyl-lysine1, N-Acetyl-lysine] the “Inhibition of CYP isoforms at concentrations tested” value (shortened to “Inhibition of CYP isoforms”) [1] was “did not inhibit CYP isoforms at concentrations tested”, the “Concentration up to which no CYP inhibition was shown” value ([1]; all isoforms tested) was “up to 50 mM” and the IC50 (CYP3A [2]) was over 50 mM. For the same compound, the IC50 (CYP3A [3]) was over 50 mM.

In the case of `CC1(C)CC(=O)CC(=O)C1` [5,5-dimethyl-1,3-cyclohexanedione], the “Inhibition of CYP isoforms” value [1] is reported as “did not inhibit CYP isoforms at concentrations tested”.

In the case of `CCN1C(=O)C=CC1=O` [N-Ethylmaleimide (NEM), N-Ethylmaleimide], the IC50 (CYP2D6 [4]) is reported as over 40 mM, the IC50 (CYP2C19 [5]) is reported as 2.9 mM and the “Activation of CYP2C19 observed at concentrations up to” value (CYP2C19 [5]) is reported as “up to 0.4 mM”. The IC50 (CYP1A2 [6]) was 120 µM, the IC50 (CYP2C9 [7]) was 3.2 mM and the “Activation of CYP2C9 observed at concentrations up to” value (CYP2C9 [7]) was “up to 1 mM”. For the same compound, the “NEM concentration at and above which TSO-NEM formation rapidly decreases” value ([8]; HLM 0.5 mg/mL, NADPH, 15 min) was at least 165 µM, the “NEM concentrations with initial increase in TSOD formation” value ([8]; HLM 0.5 mg/mL, NADPH, 15 min) was 0.7 to 18.3 µM and the “Response of TSO-NEM formation to increasing NEM concentration” value ([8]; NEM 0.007–40 mM) was “bell-shaped response curve”.

In the case of `CN1C(=O)C=CC1=O` [N-Methylmaleimide], the “Activation of CYP2C19 observed at concentrations up to” value (CYP2C19 [5]) is reported as “up to 0.2 mM” and the “Activation of CYP2C9 observed at concentrations up to” value (CYP2C9 [7]) is reported as “up to 0.2 mM”.

For `O=C(O)CCP(CCC(=O)O)CCC(=O)O` [Tris(2-carboxyethyl) phosphine (TCEP), Tris(2-carboxyethyl) phosphine], the “Activation of CYP2D6” value (CYP2D6 [4]; HLM + NADPH, dextromethorphan probe) was “activation was observed”.

`O=[As][O-].[Na+]` [Arsenite, sodium arsenite] showed an IC50 (CYP3A [9]) of over 10 mM, an IC50 (CYP3A [10]) of over 10 mM and an IC50 (CYP1A2 [11]) of over 10 mM. The IC50 (CYP2D6 [12]) was over 10 mM, the IC50 (CYP2C19 [13]) was over 10 mM and the “Concentration up to which no CYP inhibition was shown” value [14] was “up to 10 mM”. The “Inhibition of CYP isoforms” value [14] was “did not inhibit CYP isoforms at concentrations tested” and the IC50 (CYP2C9 [15]) was over 10 mM.

`C1COCCN1` [Morpholine] showed an IC50 (CYP1A2 [16]) of over 100 mM, an IC50 (CYP2D6 [4]) of 13 mM and an IC50 (CYP2C19 [5]) of 14 mM. The “Activation of CYP1A2” value (CYP1A2 [11]) was “activation was observed”, the IC50 [17] was 7.9 to 16 mM and the IC50 (CYP2C9 [7]) was 7.9 mM.

`CN1CCCCC1` [N-Methylpiperidine] was tested, and the “Activation of CYP1A2 observed at concentrations up to” value (CYP1A2 [16]; HLM + NADPH, tacrine probe) was “up to 12.5 mM”.
